Legend:
[1] = Rate of sedimentation of the oral suspension (HPLC assay after shaking and rest); format: physicochemical; settings: after 3 days
Description: The rate of sedimentation of the liquid suspension of the present invention was determined as set forth below. Two bottles containing the suspension of the present invention were shaken and left to rest. The bottles were then sampled immediately (time zero), then after 5 minutes, 10 minutes, 30 minutes, 60 minutes and after 72 hours (three days) post shaking. The levels of posaconazole and of the preservative (Sodium Benzoate) in these samples were assayed by HPLC. HPLC methods of detection are well-known to one of skill in the art.

[2] = Randomized, open-label, 4-way crossover, single-dose bioavailability and food effect study; format: in vivo, healthy subjects; settings: for 0-hour plasma concentration of posaconazole: likely carry-over from previous doses
Description: The relative bioavailability of the posaconazole oral suspension was compared to a solid dosage form of posaconazole in healthy subjects. The first objective was to determine the relative bioavailability of posaconazole given as an oral suspension compared to an oral solid formulation when administered with a high-fat breakfast. The second objective was to determine the effect of high-fat and non-fat food relative to fasting conditions on the oral bioavailability of the compound of formula I when given as an oral suspension. Twenty healthy subjects completed this randomized, open-label, 4-way crossover, single-dose bioavailability and food effect study of posaconazole. Subjects received each of the following four treatments separated by at least a 7 day washout period: [table] Subjects were randomized to either remain fasted (Treatment A), to receive a standardized high fat breakfast (Treatment B or D) or a standardized non-fat breakfast (Treatment C). Meals were consumed in a 20-minute period prior to the morning drug administration and subjects received the appropriate treatment within 5 minute of completing the breakfast. […] The area under the plasma concentration-time curve from time zero to the final quantifiable sampling time [AUC(tf)] was calculated using the linear trapezoidal method and extrapolated to infinity (I) as follows: [formula] where C(tf) is the estimated concentration determined from linear regression at time, tf. Total body clearance was calculated by the following: CL=Dose/AUC(I) The apparent volume of distribution ([…]) was calculated from the ratio of the total body clearance to the terminal phase rate constant (K). Summary statistics were calculated for the plasma suspension formulation of the present invention compared to a prior art tablet formulation concentration-time data at each time point and the derived pharmacokinetic parameters. The original scale and log-transformed Cmax and AUC values were analyzed using an analysis of variance (ANOVA). […]

[3] = Lipophilicity and water solubility (background statement); format: physicochemical
[4] = test system: Aspergillis, Candida, Cryptococcus, Fusarium, and other opportunistic fungi; settings: broad range of fungi; cited from earlier work

In the case of `CC[C@@H]([C@H](C)O)n1ncn(-c2ccc(N3CCN(c4ccc(OC[C@@H]5CO[C@@](Cn6cncn6)(c6ccc(F)cc6F)C5)cc4)CC3)cc2)c1=O` [posaconazole], the sedimentation of posaconazole [1] is reported as “not sedimented”, the “0-hour plasma concentration of posaconazole” value ([2]; Subject 20, Treatment A) is reported as 22.5 ng/mL and the “0-hour plasma concentration of posaconazole” value ([2]; Subject 20, Treatment B) is reported as 8.5 ng/mL. The “mean terminal t½” value ([2]; independent of treatment) was “about 22 hour”, the lipophilicity [3] was “highly lipophilic” and the water solubility [3] was “extremely low”. The antifungal activity [4] was “potent”.

Source: patent US20030055067A1, “Antifungal composition with enhanced bioavailability” (SCHERING CORPORATION, priority 2001, published 2003)
